Experimental data reported in ChEMBL document CHEMBL5634094, “Micafungin: A promising inhibitor of UBE2M in cancer cell growth suppression” (Eur J Med Chem, 2023).
Calls of active or inactive are those of the source. The calls are words filed in the database; no cut-off is given here. Starred links: 1 amine or outer side, 2 acyl side, 3 side chain; linkers in the order of their positions; H or OH if unused. Positions of bridges follow the written chain, without caps; N, C: chain ends. Non-standard residues stand in square brackets, D forms with d. Residues, ends and D or L forms follow the SMILES beside them. *: point of attachment. hTyr(3S-OH,4S-OH,3'-OSO3H) = N[C@H](C(=O)O)[C@H](O)[C@@H](O)c1ccc(O)c(OS(=O)(=O)O)c1; Orn(4R-OH,5R-OH) = O=C([C@H](C[C@@H](O)[C@@H](O)N[*:3])N[*:1])[*:2]; Pro(3S-OH,4S-Me) = C[C@H]1CN[C@H](C(=O)O)[C@H]1O; X1 = CCCCCOc1ccc(-c2cc(-c3ccc(C(=O)*)cc3)no2)cc1; Gln(3R-OH) = NC(=O)C[C@@H](O)[C@H](N)C(=O)O; Hyp = O=C(O)[C@@H]1C[C@@H](O)CN1

How the values were obtained:
[1] = biological target: T1, NEDD8/NEDD8-conjugating enzyme Ubc12 (Homo sapiens, UniProt P61081+Q15843); experiment: Inhibition of GST-tagged recombinant human UBE2M/His-tagged human NEDD8 interaction by HTRF assay relative to control; type: protein-complex assay
T1 sequence (Q15843 whole entry, one chain of several): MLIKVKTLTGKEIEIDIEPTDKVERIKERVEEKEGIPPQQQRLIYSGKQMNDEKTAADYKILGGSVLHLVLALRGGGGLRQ

Homo sapiens = species on record: Homo sapiens; experiment: Inhibition of neddylation of His-tagged recombinant human NAE expressed in Escherichia coli (BL21) at 6.25 to 100 uM by Western blot analysis; settings: dose 6.25-100 µM
Cullin-1 (Homo sapiens) [2] = biological target: Cullin-1 (Homo sapiens) (UniProt Q13616); experiment: Inhibition of CULLIN-1 neddylation in human AGS cells assessed as increase in p21 level incubated for 24 hrs by immunoblot analysis; type: cell-based; settings: dose 5-40 µM
Cullin-1 (Homo sapiens), sequence (Q13616 whole entry): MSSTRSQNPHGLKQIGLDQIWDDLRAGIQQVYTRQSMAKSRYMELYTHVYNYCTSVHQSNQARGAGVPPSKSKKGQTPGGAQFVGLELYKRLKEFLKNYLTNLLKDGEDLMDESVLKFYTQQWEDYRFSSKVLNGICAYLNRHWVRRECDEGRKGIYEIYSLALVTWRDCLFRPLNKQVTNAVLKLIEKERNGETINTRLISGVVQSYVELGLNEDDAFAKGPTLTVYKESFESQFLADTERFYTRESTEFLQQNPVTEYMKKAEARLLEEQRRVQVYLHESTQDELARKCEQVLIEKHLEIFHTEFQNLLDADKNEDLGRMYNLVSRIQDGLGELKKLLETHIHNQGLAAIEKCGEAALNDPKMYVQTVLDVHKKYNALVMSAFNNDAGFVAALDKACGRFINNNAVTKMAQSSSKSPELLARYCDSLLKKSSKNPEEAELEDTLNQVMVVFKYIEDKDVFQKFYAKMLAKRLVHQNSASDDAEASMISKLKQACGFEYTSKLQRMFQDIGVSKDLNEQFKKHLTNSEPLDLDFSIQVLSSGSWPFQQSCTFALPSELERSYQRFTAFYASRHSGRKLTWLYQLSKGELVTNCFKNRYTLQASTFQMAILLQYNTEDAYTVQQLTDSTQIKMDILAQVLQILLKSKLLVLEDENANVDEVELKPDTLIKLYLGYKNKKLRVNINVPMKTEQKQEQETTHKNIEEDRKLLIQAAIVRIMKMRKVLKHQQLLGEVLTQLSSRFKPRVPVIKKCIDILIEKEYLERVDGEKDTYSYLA

[3] = biological target: T2, NEDD8-conjugating enzyme Ubc12 (Homo sapiens) (UniProt P61081); experiment: Binding affinity to GST-tagged recombinant human UBE2M assessed as protein stability upto 70 degreeC at 20 uM preincubated for 10 mins followed by heat exposure by TSA
T2 sequence (whole entry): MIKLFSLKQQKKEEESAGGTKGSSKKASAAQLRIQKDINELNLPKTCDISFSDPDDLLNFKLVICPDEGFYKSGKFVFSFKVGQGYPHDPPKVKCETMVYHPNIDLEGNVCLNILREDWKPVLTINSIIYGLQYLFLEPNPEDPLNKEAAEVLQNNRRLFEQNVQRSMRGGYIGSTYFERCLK

AGS [4] = experiment: Induction of apoptosis in human AGS cells assessed as increase in NOXA level at 5 to 40 uM incubated for 24 hrs by immunoblot analysis; type: functional, cell-based; settings: dose 5-40 µM
AGS [5] = experiment: Induction of cell cycle arrest at G2/M phase in human AGS cells at 20 to 40 uM incubated for 24 hrs by PI staining based FACS analysis; type: functional; settings: dose 20-40 µM
AGS [6] = experiment: Inhibition of cell viability in human AGS cells incubated for 72 to 120 hrs by MTT assay; type: functional, cell-based; settings: dose 5-80 µM, time 72-120 hrs
[7] = biological target: T2, NEDD8-conjugating enzyme Ubc12 (Homo sapiens); experiment: Binding affinity to GST-tagged recombinant human UBE2M assessed as protein stability at 60 degreeC preincubated for 10 mins followed by heat exposure by TSA; settings: dose 1.25-20 µM
[8] = biological target: T1, NEDD8/NEDD8-conjugating enzyme Ubc12; experiment: Inhibition of GST-tagged recombinant human UBE2M/His-tagged human NEDD8 interaction by HTRF assay; type: protein-complex assay
AGS [9] = experiment: Inhibition of cell migration of human AGS cells assessed as increase in E-CADHERIN level at 5 to 40 uM incubated for 48 hrs by Western blot analysis; type: functional, cell-based; settings: dose 5-40 µM
AGS [10] = experiment: Induction of cell cycle arrest in human AGS cells assessed as decrease in cell population at S phase at 20 to 40 uM incubated for 24 hrs by PI staining based FACS analysis; type: functional; settings: dose 20-40 µM
AGS [11] = experiment: Induction of apoptosis in human AGS cells assessed as decrease in PARP-1 level at 5 to 40 uM incubated for 24 hrs by immunoblot analysis; type: functional, cell-based; settings: dose 5-40 µM
[12] = biological target: T2, NEDD8-conjugating enzyme Ubc12 (Homo sapiens); experiment: Binding affinity to GST-tagged recombinant human UBE2M assessed as protein stability at 55 to 60 degreeC incubated for 24 hrs by CETSA; type: cell-based; settings: AGS
AGS [13] = experiment: Inhibition of cell migration of human AGS cells at 50 uM incubated for 48 hrs by transwell assay; type: functional, cell-based
AGS [14] = experiment: Inhibition of cell migration of human AGS cells at 50 uM incubated for 48 hrs by wound healing assay; type: functional, cell-based
[15] = biological target: T2, NEDD8-conjugating enzyme Ubc12 (Homo sapiens); experiment: Inhibition of neddylation of GST-tagged recombinant human UBE2M expressed in Escherichia coli (BL21) by Western blot analysis; settings: dose 6.25-100 µM
AGS [16] = experiment: Induction of DNA damage in human AGS cells assessed as increase in phosphorylated H2Ax expression at 50 uM incubated for 48 hrs by immunofluorescence analysis; type: functional, cell-based
AGS [17] = experiment: Inhibition of global CULLIN neddylation in human AGS cells incubated for 24 hrs by immunoblot analysis; type: cell-based; settings: dose 5-40 µM
[18] = biological target: T2, NEDD8-conjugating enzyme Ubc12 (Homo sapiens); experiment: Binding affinity to GST-tagged recombinant human UBE2M assessed as protein stability at 65 degreeC incubated for 24 hrs by CETSA; settings: AGS
AGS [19] = experiment: Inhibition of colony formation of human AGS cells incubated for 10 days with replacement of drug containing medium every 3 days by crystal violet staining based analysis; type: functional, cell-based; settings: dose 10-40 µM, time 10.0 day
[20] = biological target: T3, NEDD8-conjugating enzyme Ubc12 (Homo sapiens, UniProt P61081); experiment: Inhibition of UBE2M neddylation in human AGS cells incubated for 3 days by immunoblot analysis; type: cell-based
T3 sequence (P61081 whole entry): T2 sequence (whole entry)

[21] = biological target: T2, NEDD8-conjugating enzyme Ubc12 (Homo sapiens); experiment: Inhibition of […] conjugation to GST-tagged recombinant human UBE2M by pull-down based immunoprecipitation method
AGS [22] = experiment: Inhibition of cell migration of human AGS cells assessed as increase in N-CADHERIN level at 5 to 40 uM incubated for 48 hrs by Western blot analysis; type: functional, cell-based; settings: dose 5-40 µM
AGS [23] = experiment: Induction of cell cycle arrest at G2 phase in human AGS cells at 20 to 40 uM incubated for 24 hrs by PI staining based FACS analysis; type: functional; settings: dose 20-40 µM
AGS [24] = experiment: Inhibition of cell migration of human AGS cells assessed as decrease in SNAIL level at 5 to 40 uM incubated for 48 hrs by Western blot analysis; type: functional, cell-based; settings: dose 5-40 µM
Cullin-1 (Homo sapiens) [25] = biological target: Cullin-1 (Homo sapiens) (UniProt Q13616); experiment: Inhibition of CULLIN-1 neddylation in human AGS cells incubated for 24 hrs by immunoblot analysis; type: cell-based; settings: dose 5-40 µM
AGS [26] = experiment: Induction of apoptosis in human AGS cells assessed as increase in cleaved caspase-3 level at 5 to 40 uM incubated for 24 hrs by immunoblot analysis; type: functional, cell-based; settings: dose 5-40 µM
Cullin-1 (Homo sapiens) [27] = biological target: Cullin-1 (Homo sapiens) (UniProt Q13616); experiment: Inhibition of CULLIN-1 neddylation in human AGS cells assessed as increase in p27 level at 5 to 40 uM incubated for 24 hrs by immunoblot analysis; type: cell-based; settings: dose 5-40 µM
AGS [28] = experiment: Inhibition of cell migration of human AGS cells assessed as decrease in VIMENTIN level at 5 to 40 uM incubated for 48 hrs by Western blot analysis; type: functional, cell-based; settings: dose 5-40 µM
[29] = Inhibition of His-tagged recombinant human NAE expressed in Escherichia coli (BL21) by HTRF assay

For `CCCCCCCCOc1ccccc1C(=O)Nc1ccc(C(=O)OCC[N+](C)(CC)CC)cc1`, the inhibition [1] was 74.2% and the inhibition (Homo sapiens) was “Active”.
For `CCCCCOc1ccc(-c2cc(-c3ccc(C(=O)N[C@H]4C[C@@H](O)[C@@H](O)NC(=O)[C@@H]5[C@@H](O)[C@@H](C)CN5C(=O)[C@H]([C@H](O)CC(N)=O)NC(=O)[C@H]([C@H](O)[C@@H](O)c5ccc(O)c(OS(=O)(=O)O)c5)NC(=O)[C@@H]5C[C@@H](O)CN5C(=O)[C@H]([C@@H](C)O)NC4=O)cc3)no2)cc1` [MICAFUNGIN] (X1-[Orn(4R-OH,5R-OH)]T[Hyp][hTyr(3S-OH,4S-OH,3'-OSO3H)][Gln(3R-OH)][Pro(3S-OH,4S-Me)]; lactam 1-C), the inhibition (Cullin-1 (Homo sapiens) [2]) was “Dose-Dependent Effect”, the Activity [3] was “Active” and the Activity (AGS [4]) was “Active”. The inhibition [1] was 66.2%, the Activity (AGS [5]) was “Active” and the inhibition (AGS [6]) was “Active”. The Activity [7] was “Dose-Dependent Effect”, the IC50 [8] was 17 µM and the inhibition (AGS [9]) was “Active”. For the same compound, the Activity (AGS [10]) was “Active”, the Activity (AGS [11]) was “Active” and the Activity [12] was “Active”. For the same compound, the inhibition (AGS [13]) was “Active”, the inhibition (Homo sapiens) was “inactive” and the inhibition (AGS [14]) was “Active”. The inhibition [15] was “Dose-Dependent Effect”, the Activity (AGS [16]) was “Active” and the inhibition (AGS [17]) was “Active”. The Activity [18] was “inactive”, the inhibition (AGS [19]) was “Active” and the IC50 [20] was 39.9 µM. The inhibition [21] was “Active”, the inhibition (AGS [22]) was “Active” and the Activity (AGS [23]) was “Active”. For the same compound, the inhibition (AGS [24]) was “Active”, the inhibition (Cullin-1 (Homo sapiens) [25]) was “Active” and the Activity (AGS [26]) was “Active”. For the same compound, the inhibition (Cullin-1 (Homo sapiens) [27]) was “Active” and the inhibition (AGS [28]) was “Active”.
For `CN(C)c1ccc(O)c2c1C[C@H]1C[C@H]3[C@H](N(C)C)C(O)=C(C(N)=O)C(=O)[C@@]3(O)C(O)=C1C2=O`, the inhibition [1] was 58.9%.
Compound `NS(=O)(=O)OC[C@@H]1C[C@@H](n2ccc3c(N[C@H]4CCc5ccccc54)ncnc32)C[C@@H]1O` [PEVONEDISTAT] has an IC50 [29] of 0.0058 µM.
`COc1cccc2c1C(=O)c1c(O)c3c(c(O)c1C2=O)C[C@@](O)(C(=O)CO)C[C@@H]3O[C@H]1C[C@H](N)[C@H](O)[C@H](C)O1` showed an inhibition [1] of 76.5%.
For `CN(C)c1cc(NC(=O)CNC(C)(C)C)c(O)c2c1C[C@H]1C[C@H]3[C@H](N(C)C)C(O)=C(C(N)=O)C(=O)[C@@]3(O)C(O)=C1C2=O`, the inhibition [1] was 69.3%.
Work on `C[C@H]1c2cccc(O)c2C(=O)C2=C(O)[C@]3(O)C(=O)C(C(N)=O)=C(O)[C@@H](N(C)C)[C@@H]3[C@@H](O)[C@@H]21` yielded an inhibition [1] of 78.1%.
With `Cc1cc(Nc2ncc(Cl)c(Nc3ccccc3S(=O)(=O)C(C)C)n2)c(OC(C)C)cc1C1CCNCC1` the inhibition [1] was 88.2% and the inhibition (Homo sapiens) was “Active”.
In the case of `CN(C)[C@@H]1C(O)=C(C(N)=O)C(=O)[C@@]2(O)C(O)=C3C(=O)c4c(O)cccc4[C@@](C)(O)[C@H]3C[C@@H]12`, the inhibition [1] is reported as 56.4%.
For `Cc1cccc(N(C)C(=S)Oc2ccc3ccccc3c2)c1`, the inhibition [1] was 55.2%.
In the case of `CCCCCCCCCCCC[N+](C)(C)CCOc1ccccc1`, the inhibition [1] is reported as 56.5%.
In the case of `CN(C)[C@@H]1C(O)=C(C(N)=O)C(=O)[C@@]2(O)C(O)=C3C(=O)c4c(O)cccc4[C@@](C)(O)[C@H]3[C@H](O)[C@@H]12`, the inhibition [1] is reported as 64.8%.
